Measurements as given in patent US11840527B2, “Non-fused thiophene derivatives and their uses” (ENYO PHARMA, priority 2018, dated 2023).

Legend:
Assay in all cases: Stability of Fe-S cluster binding of purified NEET protein (absorbance 458 nm)
Format in all cases: biochemical
[1] = biological target: T1, CISD3 Gene Product (Miner2) (Homo sapiens, UniProt P0C7P0)
T1 sequence (P0C7P0 15-127): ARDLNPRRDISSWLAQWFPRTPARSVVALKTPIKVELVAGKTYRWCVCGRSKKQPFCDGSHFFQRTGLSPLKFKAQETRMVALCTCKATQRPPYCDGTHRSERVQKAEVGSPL
Experimental: (§1) The modulator effect on the NEET proteins encoded by human CISD1, CISD2, and CISD3 genes by the compounds of the invention has been tested and is reported below. Particularly, the biochemical function of the NEET proteins is measured by the stability of Fe—S cluster binding of the purified NEET proteins.
(§2) The Fe—S cluster binding capacity of NEET proteins is known to be coordinated by four amino-acids in a stretch of 16 (three Cysteine and one Histidine). As the lability of the Fe—S cluster of NEET proteins is sensitive to the environment, cluster stability measurements are one of the measures of interactions of NEET proteins with small molecules and compounds. NEET protein/2Fe-2S cluster stability can be assessed by monitoring the decay in absorbance of its characteristic 458-nm peak (characteristic of the oxidized 2Fe-2S cluster) over time. Each NEET protein (mitoNEET, NAF-1 and Miner 2) was tested for its Fe—S binding in the absence or presence of a compound according to the invention (see table 3 below). The rate of cluster release (time in minutes to achieve 50% loss of bound Fe—S cluster) was compared for each NEET protein in the presence of one of the compounds of the invention (in a 1:3 protein:compound molar ratio) relative to each protein alone.
(§3) At pH 6, all the three NEET proteins (mitoNEET, NAF-1 and Miner 2) have a characteristic rate of loss of the bound Fe—S cluster that can be measured by the decrease of absorbance at wavelength 458 nm over time, using a spectrophotometer. Thus, Bis-Tris buffer (100 mM Bis-Tris pH6, 100 mM Nacl) was used at pH 6 to dilute either DMSO (Blank sample: Bis-Tris Buffer pH 6, 66 μM DMSO), DMSO and one of the three NEET proteins (Control sample: Bis-Tris Buffer pH 6, 66 μM DMSO, 20 μM purified NEET protein) or DMSO, one of the three NEET proteins and a compound of the invention (Test sample: Bis-Tris Buffer pH 6, 66 μM DMSO, 20 μM purified NEET protein, 60 μM compound of the invention).
(§4) A reaction mix containing DMSO diluted in the Bis-Tris Buffer with or without a compound of the invention was prepared. The purified NEET protein was the last component added to the reaction mix which was then aliquoted into 4 replicates in 96 wells plates. The absorbance at wavelength 458 nm was taken at 5 minutes intervals at 37° C. with a spectrofluorimeter. The assay run time for CISD2 gene product (NAF-1) was 500 minutes and 180 minutes for both the CISD 1 gene product (mitoNEET) and the CISD3 gene product (Miner 2).
(§5) In addition to time monitoring, residual bound Fe—S cluster to NEET protein was measured at the final point of the spectrometry assay for each Test sample and compared to the Control sample data (in parenthesis table 3). This residual binding is measured by the differential percentage between the absorbance 458 nm at time zero and the absorbance 458 nm at the end of the experiment (i.e. respectively 500 or 180 minutes as described hereabove), showing the percentage of NEET protein still able to bind Fe—S cluster.
(§6) Analysis of the absorbance enables the time for which 50% loss of bound Fe—S cluster is reached (i.e. a 50% absorbance decrease at 458 nm) for each Test sample and each Control sample (in parenthesis table 3) to be determined. The data are then compared to determine whether the compound of the invention stabilizes or destabilizes the NEET protein/Fe—S cluster binding.
(§7) Stabilisers of Fe—S cluster binding by the NEET proteins slow the release of bound Fe—S (i.e. increase the time needed to reach 50% Fe—S cluster bound loss by more than 25% for the Test sample compared to the Control sample). As illustrated by table 3, at the concentrations tested, stabilisers of CISD1 Gene Product (mitoNEET) are the compounds #9, #18, #26, #2, #1, and #42. Stabilisers of CISD2 Gene Product (NAF-1) are the compounds #2, #1, and #40. Stabilisers of CISD3 Gene Product (Miner2) are the compounds #9, #18, #26, #2, #1, and #42.

[2] = biological target: T2, CISD2 Gene Product (NAF-1) (Homo sapiens, UniProt Q8N5K1)
T2 sequence (Q8N5K1 57-135 limits assumed): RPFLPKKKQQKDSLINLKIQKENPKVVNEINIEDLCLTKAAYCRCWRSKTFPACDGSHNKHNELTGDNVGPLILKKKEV
Experimental: as §1, §2, §3, §4, §5, §6, §7

[3] = biological target: T3, CISD1 Gene Product (mitoNEET) (Homo sapiens, UniProt Q9NZ45)
T3 sequence (Q9NZ45 33-108 limits assumed): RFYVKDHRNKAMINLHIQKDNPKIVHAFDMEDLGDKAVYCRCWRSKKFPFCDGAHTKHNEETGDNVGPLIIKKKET
Experimental: as §1, §2, §3, §4, §5, §6, §7

## O=C(Nc1scc(-c2ccc(Cl)c(F)c2)c1C(=O)O)c1ccccc1 [Compound #2, 2-Benzamido-4-(4-chloro-3-fluoro-phenyl)thiophene-3-carboxylic acid]
[1]; CISD3 gene product, at 180 minutes, 60 μM compound, vehicle control (DMSO) 11%
  Residual cluster bound at end of experiment (Percentage Absorbance 458 nm at time zero): 52% (11%)
[1]; Miner2, at the concentrations tested
  Stabiliser of Fe—S cluster binding (time to 50% loss increased by more than 25% vs control): Stabilisers
[1]; Miner2, pH 6, 37° C., 20 μM protein, 60 μM compound, run time 180 minutes, vehicle control 60
  Time (in minutes) to achieve 50% loss of bound cluster (Absorbance 458 nm): during 180 minutes
[2]; at 500 minutes, 60 μM compound, vehicle control 3%
  Residual cluster bound at end of experiment (Percentage Absorbance 458 nm at time zero): 18% (3%)
[2]; at the concentrations tested
  Stabiliser of Fe—S cluster binding (time to 50% loss increased by more than 25% vs control): Stabilisers
[2]; pH 6, 37° C., 20 μM protein, 60 μM compound, run time 500 minutes, vehicle control 310
  Time (in minutes) to achieve 50% loss of bound cluster (Absorbance 458 nm): during 500 minutes
[3]; at 180 minutes, 60 μM compound, vehicle control 16%
  Residual cluster bound at end of experiment (Percentage Absorbance 458 nm at time zero): 36% (16%)
[3]; at the concentrations tested
  Stabiliser of Fe—S cluster binding (time to 50% loss increased by more than 25% vs control): stabilisers
[3]; pH 6, 37° C., 20 μM protein, 60 μM compound, run time 180 minutes, vehicle control 80
  Time (in minutes) to achieve 50% loss of bound cluster (Absorbance 458 nm): during 180 minutes
